Read-outs that look alike come from different tables or passages of the source.
Tests used:
SARS-CoV Urbani = assay type: cell-based; conditions: HAE, two donors, 10, 1, 0.1 μM, MOI 0.5, 72 hpi
[1] = system: SARS-like bat-CoV RsSHC014; assay type: in vivo, mouse
MERS-CoV = assay type: cell-based; conditions: HAE, two donors, 10, 1, 0.1 μM, MOI 0.5, 72 hpi
[2] = system: primary human airway epithelial (HAE) cells
SARS-CoV-2 WA/1 [3] = assay type: cell-based
[4] = Mouse GS-5245 pharmacokinetic study; conditions: 30 mg/kg GS-5245 oral, timepoints over 24 hr, three mouse strains
SARS-CoV-2 Omicron BA.1 = assay type: cell-based
SARS-CoV-2 WA/1 [5] = assay: microbe, parasite or virus in culture; assay type: cell-based; conditions: Severe acute respiratory syndrome coronavirus 2, read-out: EC50, inhibition of SARS-CoV-2 replication
bat-CoV RsSHC014 = assay type: cell-based
[6] = not told; cited from earlier work
[7] = system: SARS-CoV-2 Omicron (B.1.1.529/BA.1); conditions: mouse, in vivo
[8] = direct oral dosing of GS-441524, non-human primates; cited from earlier work

## CC(C)C(=O)OC[C@H]1O[C@@](C#N)(c2ccc3c(N)ncnn23)[C@H](O)[C@@H]1O [GS-5245]
SARS-CoV Urbani
  infectious virus production (PFU in apical washes): dose-dependent reduction in infectious virus production
[1]; 10 mg/kg BID, 12 or 24 hpi, 4 dpi
  viral titers and gross lung pathology: did not exhibit reduced viral titers
[1]; 30 mg/kg BID initiated at 12 hpi
  body weight compared to vehicle-treated mice: increased weight
[1]; 30 mg/kg BID, irrespective of initiation time (12 or 24 hpi), 4 dpi
  virus lung titers and gross lung pathology: reduced virus lung titers and gross lung pathology
[1]; 30 mg/kg initiated 24 hpi, 4 dpi
  acute lung injury scores (ATS and DAD): reductions in DAD scores only
[1]; 30 mg/kg initiated at 12 hpi, 4 dpi
  acute lung injury scores (ATS and DAD): reduced acute lung injury scores with both scoring tools
MERS-CoV
  infectious virus production (PFU in apical washes): dose-dependent reduction in infectious virus production
[2]
  cytotoxicity in HAE: without measurable cytotoxicity
A549-hACE2 cells
  cytotoxicity: without cytotoxicity
SARS-CoV-2 WA/1 [3]
  infectious virus production (PFU in apical washes): dose-dependent reduction in infectious virus production
LLC-MK2-TMPRSS2 cells
  cytotoxicity: without cytotoxicity
[4]
  intact GS-5245 prodrug in plasma: No intact GS-5245 prodrug was observed at any timepoint sampled
SARS-CoV-2 Omicron BA.1
  infectious virus production (PFU in apical washes): dose-dependent reduction in infectious virus production
SARS-CoV-2 WA/1 [5]
  EC50: 740 nM
bat-CoV RsSHC014
  infectious virus production (PFU in apical washes): dose-dependent reduction in infectious virus production
[6]
  cellular permeability: increased cellular permeability over GS-441524
[7]
  ATS ALI and DAD scores: Unlike ATS ALI scores (Fig. 6D), DAD scores were different
  lung viral titers relative to vehicle: lower lung viral titers
  macroscopic lung pathology: less macroscopic lung pathology

## N#C[C@@]1(c2ccc3c(N)ncnn23)O[C@H](CO)[C@@H](O)[C@H]1O [GS-441524]
[8]
  oral bioavailability: low bioavailability
LLC-MK2-TMPRSS2 cells
  cytotoxicity: without cytotoxicity
SARS-CoV-2 WA/1 [5]
  EC50: 4600 nM

## CC(C)(C)[C@H](NC(=O)C(F)(F)F)C(=O)N1C[C@H]2[C@@H]([C@H]1C(=O)N[C@H](C#N)C[C@@H]1CCNC1=O)C2(C)C [nirmatrelvir]
SARS-CoV-2 WA/1 [5]
  EC50: 70 nM

## CCC(CC)COC(=O)[C@H](C)N[P@](=O)(OC[C@H]1O[C@@](C#N)(c2ccc3c(N)ncnn23)[C@H](O)[C@@H]1O)Oc1ccccc1 [remdesivir]
LLC-MK2-TMPRSS2 cells
  cytotoxicity: without cytotoxicity
SARS-CoV-2 WA/1 [5]
  EC50: 190 nM
